Measurements published in US10287301B2 (Achillion Pharmaceuticals, Inc., priority 2015, dated 2019).
Read-outs that look alike come from different tables or passages of the source.

Biological target: Human Factor D (Homo sapiens (Human), UniProt P00746)
Assay: Human Factor D Assay
Assay type: biochemical
Procedure, shortened: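 Thioester cleavage assay: human Factor D (serum-derived, 80 nM final), substrate Z-L-Lys-SBzl with DTNB, both 100 μM final, after 5 min compound preincubation at room temperature.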

[1] = Human Factor D 80 nM, substrate Z-L-Lys-SBzl, read-out: IC50

Chain of Human Factor D (P00746 26-253): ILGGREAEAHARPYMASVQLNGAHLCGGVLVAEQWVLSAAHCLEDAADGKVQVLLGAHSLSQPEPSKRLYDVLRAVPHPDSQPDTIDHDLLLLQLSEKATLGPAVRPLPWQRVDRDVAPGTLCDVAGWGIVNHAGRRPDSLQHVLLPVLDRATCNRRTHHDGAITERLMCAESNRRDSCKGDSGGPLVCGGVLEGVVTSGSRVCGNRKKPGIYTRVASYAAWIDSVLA

NC(=O)c1nn(CC(=O)N2C[C@H](F)C[C@H]2C(=O)Nc2nc(-c3cccc(Cl)c3)ns2)c2ccc(-c3ccnnc3)cc12 [Compound 146, 1-(2-((2S,4R)-2-(3-(3-chlorophenyl)-1,2,4-thiadiazol-5-ylcarbamoyl)-4-fluoropyrrolidin-1-yl)-2-oxoethyl)-5-(pyridazin-4-yl)-1H-indazole-3-carboxamide]
IC50 [1]: > 10 µM

CC(=O)c1cn(CC(=O)N2C[C@H](F)C[C@H]2C(=O)Nc2nc(-c3cccc(Cl)c3)ns2)c2ccc(-c3ccnnc3)cc12 [Compound 147, (2S,4R)-1-(2-(3-acetyl-5-(pyridazin-4-yl)-1H-indol-1-yl)acetyl)-N-(3-(3-chlorophenyl)-1,2,4-thiadiazol-5-yl)-4-fluoropyrrolidine-2-carboxamide]
IC50 [1]: > 10 µM

CC(=O)c1cn(CC(=O)N2C[C@H](F)C[C@H]2C(=O)Nc2cccc(-c3ccccc3Cl)c2Cl)c2ccc(-c3cnc(C)nc3)cc12 [Compound 149, (2S,4R)-1-(2-(3-acetyl-5-(2-methylpyrimidin-5-yl)-1H-indol-1-yl)acetyl)-N-(2,2′-dichlorobiphenyl-3-yl)-4-fluoropyrrolidine-2-carboxamide]
IC50: < 1 µM

CC(=O)c1cn(CC(=O)N2C[C@H](F)C[C@H]2C(=O)Nc2cccc(-c3cc(F)c(F)cc3Cl)c2F)c2ccc(-c3cnc(C)nc3)cc12 [Compound 150, (2S,4R)-1-(2-(3-acetyl-5-(2-methylpyrimidin-5-yl)-1H-indol-1-yl)acetyl)-N-(2′-chloro-2,4′,5′-trifluorobiphenyl-3-yl)-4-fluoropyrrolidine-2-carboxamide]
IC50 [1]: < 1 µM

CC(=O)c1cn(CC(=O)N2C[C@H](F)C[C@H]2C(=O)Nc2cccc(-c3ccccc3Cl)c2F)c2ccc(-c3ccc(C)nc3)cc12 [Compound 151, (2S,4R)-1-(2-(3-acetyl-5-(6-methylpyridin-3-yl)-1H-indol-1-yl)acetyl)-N-(2′-chloro-2-fluorobiphenyl-3-yl)-4-fluoropyrrolidine-2-carboxamide]
IC50 [1]: < 1 µM

CC1Oc2cccc(NC(=O)[C@@H]3C[C@@H](F)CN3C(=O)Cn3nc(C(N)=O)c4cc(-c5ccnnc5)ccc43)c2NC1=O (stereo partly drawn) [Compound 152, 1-(2-((2S,4R)-4-fluoro-2-(2-methyl-3-oxo-3,4-dihydro-2H-benzo[b][1,4]oxazin-5-ylcarbamoyl)pyrrolidin-1-yl)-2-oxoethyl)-5-(pyridazin-4-yl)-1H-indazole-3-carboxamide]
IC50 [1]: > 10 µM

CC(=O)c1cn(CC(=O)N2C[C@H](F)C[C@H]2C(=O)Nc2cccc3c2NC(=O)C(C)O3)c2ccc(-c3ccnnc3)cc12 (stereo partly drawn) [Compound 153, (2S,4R)-1-(2-(3-acetyl-5-(pyridazin-4-yl)-1H-indol-1-yl)acetyl)-4-fluoro-N-(2-methyl-3-oxo-3,4-dihydro-2H-benzo[b][1,4]oxazin-5-yl)pyrrolidine-2-carboxamide]
IC50 [1]: > 10 µM

NC(=O)c1nn(CC(=O)N2C[C@H](F)C[C@H]2C(=O)Nc2cc(O)ccn2)c2ccc(-c3ccnnc3)cc12 [Compound 154, 1-(2-((2S,4R)-4-fluoro-2-(4-hydroxypyridin-2-ylcarbamoyl)pyrrolidin-1-yl)-2-oxoethyl)-5-(pyridazin-4-yl)-1H-indazole-3-carboxamide]
IC50 [1]: > 10 µM

Cn1ccc(N2CCC(NC(=O)[C@@H]3C[C@@H](F)CN3C(=O)Cn3nc(C(N)=O)c4cc(-c5ccnnc5)ccc43)C2=O)n1 (stereo partly drawn) [Compound 155, 1-(2-((2S,4R)-4-fluoro-2-(1-(1-methyl-1H-pyrazol-3-yl)-2-oxopyrrolidin-3-ylcarbamoyl)pyrrolidin-1-yl)-2-oxoethyl)-5-(pyridazin-4-yl)-1H-indazole-3-carboxamide]
IC50 [1]: > 10 µM

CC(=O)c1cn(CC(=O)N2C[C@H](F)C[C@H]2C(=O)Nc2c[nH]nc2-c2ccc(Cl)cc2Cl)c2ccc(-c3ccnnc3)cc12 [Compound 156, (2S,4R)-1-(2-(3-acetyl-5-(pyridazin-4-yl)-1H-indol-1-yl)acetyl)-N-(3-(2,4-dichlorophenyl)-1H-pyrazol-4-yl)-4-fluoropyrrolidine-2-carboxamide]
IC50 [1]: > 10 µM

NC(=O)c1nn(CC(=O)N2C[C@H](F)C[C@H]2C(=O)NCc2ccncc2)c2ccc(-c3ccnnc3)cc12 [Compound 157, 1-(2-((2S,4R)-4-fluoro-2-(pyridin-4-ylmethylcarbamoyl)pyrrolidin-1-yl)-2-oxoethyl)-5-(pyridazin-4-yl)-1H-indazole-3-carboxamide]
IC50 [1]: > 10 µM

Cc1cc(NC(=O)[C@@H]2C[C@@H](F)CN2C(=O)Cn2nc(C(N)=O)c3cc(-c4ccnnc4)ccc32)n(-c2ccccc2F)n1 [Compound 158, 1-(2-((2S,4R)-4-fluoro-2-(1-(2-fluorophenyl)-3-methyl-1H-pyrazol-5-ylcarbamoyl)pyrrolidin-1-yl)-2-oxoethyl)-5-(pyridazin-4-yl)-1H-indazole-3-carboxamide]
IC50 [1]: > 10 µM

CC(=O)c1cn(CC(=O)N2C[C@@H](F)C[C@@H]2C(=O)NC2CCCN(c3ccccc3Cl)C2=O)c2ccc(-c3ccnnc3)cc12 (stereo partly drawn) [Compound 161, (2R,4S)-1-(2-(3-acetyl-5-(pyridazin-4-yl)-1H-indol-1-yl)acetyl)-N-(1-(2-chlorophenyl)-2-oxopiperidin-3-yl)-4-fluoropyrrolidine-2-carboxamide]
IC50 [1]: < 1 µM

CC(=O)c1nn(CC(=O)N2C[C@H](F)C[C@H]2C(=O)Nc2cccc(-c3ccccc3Cl)c2F)c2ccc(-c3cnc(C)nc3)cc12 [Compound 163, (2S,4R)-1-(2-(3-acetyl-5-(2-methylpyrimidin-5-yl)-1H-indazol-1-yl)acetyl)-N-(2′-chloro-2-fluorobiphenyl-3-yl)-4-fluoropyrrolidine-2-carboxamide]
IC50 [1]: < 1 µM

CC(=O)c1cn(CC(=O)N2C[C@H](F)C[C@H]2C(=O)Nc2cccc(-c3ncccc3Cl)c2F)c2ccc(-c3cnc(C)nc3)cc12 [Compound 164, (2S,4R)-1-(2-(3-acetyl-5-(2-methylpyrimidin-5-yl)-1H-indol-1-yl)acetyl)-N-(3-(3-chloropyridin-2-yl)-2-fluorophenyl)-4-fluoropyrrolidine-2-carboxamide]
IC50 [1]: < 1 µM

NC(=O)c1nn(CC(=O)N2C[C@H](F)C[C@H]2C(=O)Nc2cc(=O)[nH]n2C2CCCCC2)c2ccc(-c3ccnnc3)cc12 [Compound 168, 1-(2-((2S,4R)-2-(2-cyclohexyl-5-oxo-2,5-dihydro-1H-pyrazol-3-ylcarbamoyl)-4-fluoropyrrolidin-1-yl)-2-oxoethyl)-5-(pyridazin-4-yl)-1H-indazole-3-carboxamide]
IC50 [1]: > 10 µM

CC(=O)c1cn(CC(=O)N2C[C@H](F)C[C@H]2C(=O)Nc2n[nH]c(C)c2-c2ccccc2)c2ccc(-c3ccnnc3)cc12 [Compound 169, (2S,4R)-1-(2-(3-acetyl-5-(pyridazin-4-yl)-1H-indol-1-yl)acetyl)-4-fluoro-N-(5-methyl-4-phenyl-1H-pyrazol-3-yl)pyrrolidine-2-carboxamide]
IC50 [1]: < 1 µM

NC(=O)c1nn(CC(=O)N2C[C@H](F)C[C@H]2C(=O)N[C@H]2CCCC[C@@H]2O)c2ccc(-c3ccnnc3)cc12 [Compound 172, 1-(2-((2S,4R)-4-fluoro-2-((1S,2S)-2-hydroxycyclohexylcarbamoyl)pyrrolidin-1-yl)-2-oxoethyl)-5-(pyridazin-4-yl)-1H-indazole-3-carboxamide]
IC50 [1]: > 10 µM

CC(=O)c1cn(CC(=O)N2C[C@H](F)C[C@H]2C(=O)Nc2ccnc(=O)n2C)c2ccc(-c3ccnnc3)cc12 [Compound 173, (2S,4R)-1-(2-(3-acetyl-5-(pyridazin-4-yl)-1H-indol-1-yl)acetyl)-4-fluoro-N-(3-methyl-2-oxo-2,3-dihydropyrimidin-4-yl)pyrrolidine-2-carboxamide]
IC50 [1]: > 10 µM

NC(=O)c1nn(CC(=O)N2C[C@H](F)C[C@H]2C(=O)Nc2cccc(O)n2)c2ccc(-c3ccnnc3)cc12 [Compound 174, 1-(2-((2S,4R)-4-fluoro-2-(6-hydroxypyridin-2-ylcarbamoyl)pyrrolidin-1-yl)-2-oxoethyl)-5-(pyridazin-4-yl)-1H-indazole-3-carboxamide]
IC50 [1]: > 10 µM

CC(=O)c1cn(CC(=O)N2C[C@H](F)C[C@H]2C(=O)Nc2ccc(O)cn2)c2ccc(-c3ccnnc3)cc12 [Compound 175, (2S,4R)-1-(2-(3-acetyl-5-(pyridazin-4-yl)-1H-indol-1-yl)acetyl)-4-fluoro-N-(5-hydroxypyridin-2-yl)pyrrolidine-2-carboxamide]
IC50 [1]: > 10 µM

NC(=O)c1nn(CC(=O)N2C[C@H](F)C[C@H]2C(=O)Nc2ccc(O)cn2)c2ccc(-c3ccnnc3)cc12 [Compound 176, 1-(2-((2S,4R)-4-fluoro-2-(5-hydroxypyridin-2-ylcarbamoyl)pyrrolidin-1-yl)-2-oxoethyl)-5-(pyridazin-4-yl)-1H-indazole-3-carboxamide]
IC50 [1]: > 10 µM

CC(=O)c1cn(CC(=O)N2C[C@H](F)C[C@H]2C(=O)Nc2cc(O)ccn2)c2ccc(-c3ccnnc3)cc12 [Compound 177, (2S,4R)-1-(2-(3-acetyl-5-(pyridazin-4-yl)-1H-indol-1-yl)acetyl)-4-fluoro-N-(4-hydroxypyridin-2-yl)pyrrolidine-2-carboxamide]
IC50: 1 to 10 µM

NC(=O)c1nn(CC(=O)N2C[C@H](F)C[C@H]2C(=O)Nc2nccc(Cl)n2)c2ccc(-c3ccnnc3)cc12 [Compound 178, 1-(2-((2S,4R)-2-(4-chloropyrimidin-2-ylcarbamoyl)-4-fluoropyrrolidin-1-yl)-2-oxoethyl)-5-(pyridazin-4-yl)-1H-indazole-3-carboxamide]
IC50 [1]: > 10 µM

NC(=O)c1nn(CC(=O)N2C[C@H](F)C[C@H]2C(=O)Nc2ncc(I)cn2)c2ccc(-c3ccnnc3)cc12 [Compound 179, 1-(2-((2S,4R)-4-fluoro-2-(5-iodopyrimidin-2-ylcarbamoyl)pyrrolidin-1-yl)-2-oxoethyl)-5-(pyridazin-4-yl)-1H-indazole-3-carboxamide]
IC50: 1 to 10 µM

CC(=O)c1cn(CC(=O)N2C[C@H](F)C[C@H]2C(=O)Nc2nccc(Cl)n2)c2ccc(-c3ccnnc3)cc12 [Compound 180, (2S,4R)-1-(2-(3-acetyl-5-(pyridazin-4-yl)-1H-indol-1-yl)acetyl)-N-(4-chloropyrimidin-2-yl)-4-fluoropyrrolidine-2-carboxamide]
IC50 [1]: > 10 µM
